Experimental findings from publication PMC7073229, “Novel Quinoline Compounds Active in Cancer Cells through Coupled DNA Methyltransferase Inhibition and Degradation” (Cancers, 2020) are described below.

Assay [1] addresses T1, C-terminal catalytic domain of human DNMT3A (hDNMT3A) (Homo sapiens, UniProt Q9Y6K1).
T1 construct: the C-terminal catalytic domain of human DNMT3A (hDNMT3A)
Kind of assay: DNMT3A restriction-based fluorescence assay. Conditions: for EC50: mean of at least two independent experiments, read-out: Enzyme Inhibition (EC50 ± SD) hDNMT3A. It is filed as biochemical. The method, then:
DNMT3A enzyme inhibition was adapted from the restriction-based fluorescence assay protocol described in Ceccaldi et al.. Briefly, a biotin-labelled oligonucleotide at the 5’ end is hybridized to his complementary strand labelled at the 3’ end with 6-carboxyfluorescein. The DNA duplex containing only one single CpG site overlapping with a restriction site of a methylation sensitive restriction enzyme is transferred in the wells coated with avidin. The methylation reaction is performed by adding human C-terminal DNMT3A at the final concentration of 4 ng/µL in a total volume of 50 µL in the presence of the inhibitors at various concentrations and the co-substrate SAM at the final concentration of 20 µM. The plate was incubated for 1 h at 37 °C, washed, and added with the methylation sensitive restriction enzyme HpyCH4IV, incubated for 1 h further at 37 °C, washed and the fluorescence measured with a PerkinElmer Envision Multilabel Plate Reader. The data are expressed as percentage of inhibition vs. log concentration (M). Data are normalized referring to the “restriction control” (wells coated with labelled duplex not treated nor exposed to DNMT3A, but only cleaved by HpyCH4IV) as the maximum of inhibition (100%) and to the “DMSO control” (wells coated with labelled duplex but treated just with 0.1% DMSO exposed to DNMT3A and then to HpyCH4IV) as the minimum of inhibition (0%; total methylation).

For assay [2], the system named is luciferase reporter under methylated CMV promoter in KG-1 leukemia cells. Put plainly: CMV-luc assay in KG-1 cells. It is filed as cell-based. To be noted: KG-1 CMV-luc, vs DMSO. The method, then:
The assay was carried out as described by Rilova et al.. The KG-1 cell line was stably transfected with the luciferase firefly (Luc^+ from pGL3 by Promega, Madison, WI, USA) reporter gene under the control of a methylated CMV promoter (from pEGFP-N1 by Clontech) and selected for the maintenance of the methylation of CMV and luciferase expression silencing (KG-1 CMV-luc). The stably integrated KG-1 CMV-luc cells are cultivated in RPMI-1640 medium (Lonza, Strasbourg, France), supplemented with 10% FCS (Lonza, Strasbourg, France) and 0.5 mg/mL of geneticin (Sigma-Aldrich, Saint-Quentin Fallavier, France), under 5% CO2, at 37 °C and seeded at 20,000 cells per well in 96-well plates. After 5 or 24 h of incubation in the presence of compounds or the solvent DMSO, the induction of the promoter is measured by quantification of luciferase with the Brite-lite assay system (PerkinElmer, Villebon-sur-Yvette, France) according to the manufacturer’s protocol. The luminescence is measured on an EnVision Multilabel Plate Reader (PerkinElmer, Villebon-sur-Yvette, France), and the data are expressed as fold induction compared to DMSO control. The mean of 2–4 experiments and its standard error are reported.

The next assay deals with U937 cells. Put plainly: Sub-G1 peak, cell cycle flow cytometry. It is filed as cell-based, human. To be noted: U937, 1 µM; for effect on sub-G1 peaks vs untreated cells: 24 and 48 h. The method, then: Cell cycle analysis was performed on 5 × 10^5 fixed cells resuspended in a RNase A (3 mg/mL) and propidium iodide (PI) solution (1 mg/mL). Samples were analyzed with a C6 Accuri BD (Becton Dickinson & Co., San Jose, CA, USA). The percentage of apoptosis was measured analyzing sub-G1 peaks. Apoptotic cell death was also evaluated by using annexin V–fluorescein isothiocyanate (FITC) apoptosis kit (BD Bioscience) and assayed according to the manufacturer’s instructions. Cells double-stained for both annexin V and PI were analyzed by flow cytometry. PI was used in conjunction with annexin V–FITC to distinguish cells in the earlier stages of apoptosis (annexin V-FITC positive, PI negative) from those in later stages of apoptosis or that were already dead (annexin V–FITC positive, PI positive). Percentage of cells positive for caspase-3 activation was evaluated by Active Caspase-3 Apoptosis Kit (BD biosciences, Milan, Italy) according to the manufacturer’s instructions.

For a further assay, the system named is F21T G-quadruplex DNA. Kind of assay: FRET melting assay, G-quadruplex DNA. Type of assay: binding. On the procedure: (§1) Experimental procedure for Fluorescence Resonance Energy Transfer (FRET) melting assay Oligonucleotides labeled at 5’ with FAM (6-carboxyfluorescein) as donor fluorophore and TAMRA (6 - carboxytetramethylrhodamine) at 3’ as the acceptor fluorophore were purchased from STAB VIDA (Portugal). Each oligonucleotide was initial ly diluted to 100 µM in water (Molecular Biology Reagent, Sigma). Stock solutions of 20 µM and subsequent dilutions were made with FRET buffer (60 mM KCl, potassium cacodylate, pH 7.4). Tagged oligonucleotides at 0.4 µM were annealed by heating at 90 -95 °C for 10 min, followed by slow cooling to room temperature. St ock solutions of compounds (1 mM) were prepared in 10% DMSO. Subsequent dilutions were performed using FRET buffer. Annealed DNA (50 µL) and test compound solutions (50 µL) were distributed across 96-well RT-PCR plates (PCR-96-FLT-C, Axygen, Inc). Fluorescence readings (performed in a 7300 RT -PCR equipment from Applied Biosystems) were taken at intervals of 0.5 °C in the range 31 –95 °C, with the temperature being maintained for 30 seconds prior to each reading. Experiments were performed in triplicate. Fina l analysis of the data was carried out with GraphPad Prism v.5.0 (GraphPad Software Inc., La Jolla, CA, USA).
(§2) The advanced curve-fitting function in GraphPad Prism (nonlinear regression fit) was used for calculation of ΔTm values. Only results with fitting r2 values > 0.75 (std error < 0.25) were considered.
(§3) Table S2. Synthetic oligonucleotides used in FRET experiments.

The test system of the next assay is KRAS21R G-quadruplex DNA. Kind of assay: FRET melting assay, G-quadruplex DNA. It is filed as binding. The method, then: as §1, §2, §3

T1 sequence (Q9Y6K1 634-912 limits assumed): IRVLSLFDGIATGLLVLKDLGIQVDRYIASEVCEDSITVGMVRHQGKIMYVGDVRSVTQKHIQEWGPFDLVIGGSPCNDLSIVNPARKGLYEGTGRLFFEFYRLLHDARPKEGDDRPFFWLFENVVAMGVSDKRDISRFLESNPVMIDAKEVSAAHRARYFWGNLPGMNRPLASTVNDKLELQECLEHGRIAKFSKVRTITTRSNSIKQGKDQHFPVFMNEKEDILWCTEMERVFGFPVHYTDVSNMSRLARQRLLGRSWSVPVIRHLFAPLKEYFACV

One may read the EC50 as the midpoint of the concentration-response curve. In the case of `O=C(Nc1ccc(Nc2ccnc3ccccc23)cc1)c1cccc(Nc2ccnc3ccccc23)c1` [Compound 2a], the EC50 in assay [1] came to 6 ± 1 µM. Besides, the “Luciferase Expression (Fold ± SD)” value in assay [2] (0.5 µM) is given as 1.02 ± 0.04 fold; in assay [2] (1 µM) it was 1.05 ± 0.12 fold; in assay [2] (5 µM), 19.94 ± 4.26 fold; in assay [2] (10 µM), 4.66 ± 1.63 fold; in assay [2] (25 µM), 1.59 ± 0.59 fold. In the assay on U937 cells (48 h), the “percentage of sub-G1 peak” value is 62%. In addition, the results for the “F21T ∆Tm” value with F21T G-quadruplex DNA (5 µM) and in the assay with F21T G-quadruplex DNA (10 µM) were 0 ºC and 5.1 ºC, respectively. Moreover, the results for the “KRAS ∆Tm” value with KRAS21R G-quadruplex DNA (5 µM) and with KRAS21R G-quadruplex DNA (10 µM) were 0 ºC and 6.4 ºC, respectively.

For `O=C(Nc1cccc(Nc2ccnc3ccccc23)c1)c1cccc(Nc2ccnc3ccccc23)c1` [Compound 2b], the entries for the “F21T ∆Tm” value with F21T G-quadruplex DNA (5 µM) and in the assay with F21T G-quadruplex DNA (10 µM) were 2.8 ºC and 5.0 ºC, respectively. Also, the entries for the “KRAS ∆Tm” value with KRAS21R G-quadruplex DNA (5 µM) and with KRAS21R G-quadruplex DNA (10 µM) were 1.0 ºC and 7.7 ºC, respectively.

Regarding `O=C(Nc1cccc(Nc2ccnc3ccccc23)c1)c1ccc(Nc2ccnc3ccccc23)cc1` [Compound 2c], the EC50 in assay [1] came out at 5.6 ± 1 µM. The results for the “F21T ∆Tm” value in the assay on F21T G-quadruplex DNA (5 µM) and in the assay on F21T G-quadruplex DNA (10 µM) were 1 ºC and 1.2 ºC, respectively. Moreover, the “KRAS ∆Tm” value in the assay with KRAS21R G-quadruplex DNA (5 µM) was 0 ºC; in the assay on KRAS21R G-quadruplex DNA (10 µM) it was 3.4 ºC.

Regarding `O=C(Nc1ccc(NC(=O)c2cccc(Nc3ccnc4ccccc34)c2)cc1)OCc1ccccc1` [Compound 4a], in assay [1], the concentration for a half-maximal effect (EC50) was more than 32 µM. Moreover, the “Luciferase Expression (Fold ± SD)” value in assay [2] (0.5 µM) is listed as 1.05 ± 0.12 fold; in assay [2] (1 µM), 1.02 ± 0.07 fold; in assay [2] (5 µM), 1.04 ± 0.16 fold; in assay [2] (10 µM), 1.45 ± 0.39 fold; in assay [2] (25 µM), 1.60 ± 1.00 fold. Besides, the “effect on sub-G1 peaks vs untreated cells” value in the assay with U937 cells was “very low”. For the same compound, the “F21T ∆Tm” value in the assay with F21T G-quadruplex DNA (5 µM) is 0 ºC; with F21T G-quadruplex DNA (10 µM) it was 4.3 ºC. Also, the results for the “KRAS ∆Tm” value in the assay on KRAS21R G-quadruplex DNA (5 µM) and with KRAS21R G-quadruplex DNA (10 µM) were 2.5 ºC and 4.6 ºC, respectively.

For `O=C(Nc1cccc(NC(=O)c2ccc(Nc3ccnc4ccccc34)cc2)c1)OCc1ccccc1` [Compound 4c], the EC50 in assay [1] is 6.1 ± 1 µM. Also, the “fold more potent than 4 against hDNMT3A” value in assay [1] (ratio of EC50 values vs 4) was 3 fold. The “Luciferase Expression (Fold ± SD)” value in assay [2] (0.5 µM) was determined as 0.96 ± 0.01 fold; in assay [2] (1 µM), 0.87 ± 0.05 fold; in assay [2] (5 µM) it was 40.40 ± 12.75 fold; in assay [2] (10 µM), 28.51 ± 3.39 fold; in assay [2] (25 µM), 8.07 ± 1.96 fold. Further, the “effect on sub-G1 peaks vs untreated cells” value in the assay on U937 cells is “no”. Besides, the “F21T ∆Tm” value in the assay on F21T G-quadruplex DNA (5 µM) is recorded as 0.8 ºC; in the assay on F21T G-quadruplex DNA (10 µM), 1.5 ºC. Moreover, the “KRAS ∆Tm” value with KRAS21R G-quadruplex DNA (5 µM) was 1.0 ºC; with KRAS21R G-quadruplex DNA (10 µM), 2.6 ºC.
